Here are results for five compounds from patent US20250367343A1, “CLINICAL DRESSING LOADED WITH COFFEE EXTRACT” (KING SAUD UNIVERSITY, priority 2024, published 2025).

The subject of this assay is methicillin-resistant Staphylococcus aureus (ATCC 43300). Nature of the assay: Standard antibiotic sensitivity test using the Vitek-2 system. As to conditions: strain ATCC 43300. The format is cell-based.
On to `CC1(C)S[C@@H]2[C@H](NC(=O)[C@H](N)c3ccccc3)C(=O)N2[C@H]1C(=O)O` [ampicillin], for which the “antibiotic sensitivity of the MRSA strain” value is listed as “resistant”.

Turning to `CO[C@@]1(NC(=O)Cc2cccs2)C(=O)N2C(C(=O)O)=C(COC(N)=O)CS[C@@H]21` [cefoxitin], the “antibiotic sensitivity of the MRSA strain” value is reported as “resistant”. As for `Cc1onc(-c2ccccc2)c1C(=O)N[C@@H]1C(=O)N2[C@@H]1SC(C)(C)[C@@H]2C(=O)O` [oxacillin], the entry is “resistant”; as for `CC1(C)S[C@@H]2[C@H](NC(=O)Cc3ccccc3)C(=O)N2[C@H]1C(=O)O` [penicillin G], “resistant”. As for amoxicillin-alavulanate, the entry is “resistant”.
